Molecules are shown by their SMILES.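 How tested: cells in 96-well plates exposed to compound for 48 hours at five concentrations. GI50 is the concentration that inhibits growth by half. The concentration for full growth arrest is given as TGI.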 Bounds are passed on as bounds.

What all share (experiment): NCI tumour cell line growth inhibition, 48 h
In experiment [1] the test system is OVCAR-3 ovarian.
Experiment [2] has as its system NCI-H226 lung.
Experiment [3] deals with SN12C renal.
Experiment [4] relates to MCF7 breast.
Experiment [5] concerns MDA-MB-231 breast.
Experiment [6] has as its system OVCAR-4 ovarian.
The subject of experiment [7] is LOX IMVI melanoma.
Experiment [8] deals with UACC-62 melanoma.
Experiment [9] deals with NCI/ADR-RES ovarian.
In experiment [10] the test system is SK-MEL-28 melanoma.

In the case of `COc1ccc(C(=O)N2c3ccccc3Sc3ccccc32)c(C(F)(F)F)c1`, the GI50 was 0.332 µM in [1]; 1.39 µM in experiment [2]; 1.3 µM in experiment [3]; 0.411 µM in experiment [4]; 1.16 µM in experiment [5]; 1.98 µM in experiment [6]. Also, the GI50 in experiment [7] is 0.516 µM; in [8], 0.438 µM; in experiment [9], 0.37 µM; in experiment [10], 9.17 µM. For the same compound, the TGI is 28.1 µM in experiment [1]; 83.8 µM in experiment [2]; above 100 µM in experiment [3]; above 100 µM in [4]; 92.2 µM in experiment [5]; above 100 µM in experiment [6]. For the same compound, the TGI in [7], in [8], in [9] and in experiment [10] was above 100 µM throughout.
Consider `CSc1cc(N)ccc1N=Nc1ccc(S(N)(=O)=O)cc1`, for which the TGI in experiment [1] is 68.5 µM; in [2], 50.4 µM; in [3], above 100 µM; in experiment [4] it was above 100 µM; in experiment [5] it was 57.9 µM; in experiment [6] it was above 100 µM. The TGI in experiment [7] was above 100 µM; in [8], 32 µM; in experiment [9] it was 91.2 µM; in [10] it was above 100 µM.
With `CN(Cc1cnc2nc(N)nc(N)c2n1)c1ccc(C(=O)NC(CCC(=O)NC(P(=O)(O)O)P(=O)(O)O)C(=O)O)cc1` (stereo not given), the TGI in experiment [1], in [2], in experiment [3], in experiment [4], in experiment [5] and in experiment [6] was above 100 µM throughout. Moreover, the TGI in experiment [7], in experiment [8], in experiment [9] and in [10] was above 100 µM in each case.
With `CCOC(=O)C(/C=N\C(=S)Nc1ccc(OCC)cc1)=C(/O)c1ccccc1`, the TGI in experiment [1], in [2], in [3], in experiment [4], in [5] and in experiment [6] was above 100 µM in each case. Also, the TGI in [7], in experiment [8], in [9] and in [10] was above 100 µM in each case.
`NC(N)=NS(=O)(=O)c1ccc(NC(=O)c2ccc3nc4ccccc4c(Nc4ccc(S(N)(=O)=O)cc4)c3c2)cc1`: the TGI in [1], in [2], in experiment [3], in [4], in experiment [5] and in experiment [6] was above 100 µM each time. The TGI in experiment [7], in experiment [8], in [9] and in experiment [10] was above 100 µM each time.
Take `CC1(COS(=O)(=O)OCC2(C)COS(=O)(=O)OC2)COS(=O)(=O)OC1`: the TGI was above 100 µM in experiment [1]; above 96.8 µM in experiment [2]; above 32.1 µM in experiment [3]; above 59.9 µM in [4]; above 100 µM in experiment [5]; above 100 µM in experiment [6]. For the same compound, the TGI in experiment [7] was above 77.9 µM; in [8] it was above 100 µM; in [9] it was above 100 µM; in experiment [10] it was above 100 µM.
In the case of `O=C1C(Br)=C(c2ccccc2)S(=O)c2ccccc21` (stereo not given), the TGI in experiment [1] is 26 µM; in [2] it was 40.7 µM; in experiment [3] it was 31 µM; in experiment [4], 10.4 µM; in [5] it was 29.2 µM; in [6], 5.86 µM. For the same compound, the TGI in experiment [7] is 28.2 µM; in experiment [8], 26.6 µM; in experiment [9] it was above 100 µM; in experiment [10], 42.1 µM.
Regarding `[N-]=[N+]=Nc1ccc(CNc2cc(=O)[nH]c(=O)[nH]2)cc1`, the TGI in [1], in experiment [2], in experiment [3], in experiment [4], in experiment [5] and in experiment [6] was above 100 µM in each case. Moreover, the TGI in experiment [7] is above 100 µM; in [8], above 100 µM; in experiment [9], above 100 µM; in [10], 99.6 µM.
For `COc1ccc(OC)c2c1C1CCC(=O)N1CN2C(C)=O` (stereo not given), the TGI in experiment [1], in experiment [2], in experiment [3], in experiment [4], in experiment [5] and in [6] was above 100 µM each time. For the same compound, the TGI in experiment [7], in [8], in [9] and in experiment [10] was above 100 µM in each case.
Turning to `O=c1oc2ccc(Cl)cc2cc1-c1cn2cc(Cl)ccc2n1`, the TGI in experiment [1] is above 100 µM; in experiment [2], above 100 µM; in experiment [3], above 100 µM; in experiment [4], 6.37 µM; in experiment [5], above 100 µM; in [6], above 100 µM. The TGI in experiment [7] is above 100 µM; in [8] it was 15 µM; in [9] it was above 85.9 µM; in experiment [10], above 100 µM.
Regarding `O=S1(=O)c2ccccc2NC(=S)CC1c1ccccc1` (stereo not given), the TGI in [1], in experiment [2], in experiment [3], in [4], in [5] and in experiment [6] was above 100 µM in each case. Moreover, the TGI in experiment [7], in [8], in experiment [9] and in [10] was above 100 µM in each case.
With `COc1cc(C2SCC(=O)N2c2ccc(Oc3ccc(Cl)cc3)c(Cl)c2)cc(OC)c1OC` (stereo not given), the TGI is 31.1 µM in [1]; 31.9 µM in experiment [2]; 56.2 µM in experiment [3]; above 100 µM in experiment [4]; 40.3 µM in experiment [5]; above 100 µM in [6]. The TGI is 36.8 µM in experiment [7], 30.9 µM in experiment [8], 30.4 µM in [9] and 35 µM in experiment [10].

The values above are taken from PubChem BioAssay (NCI).
